Measurements from ChEMBL document CHEMBL1201862, “PubChem BioAssay data set” (2004).
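Step 1: Grow cells in 96-well plates. Step 2: Expose to compound for 48 hours at 5 concentrations. Step 3: Interpolate endpoints linearly; if unreached, use highest concentration. GI50: concentration for 50% inhibition of growth.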 The source made the active and inactive calls. No stated cut-off is given here; in the data, active = GI50 up to about 1.1 µM and inactive = higher.

Tests used:
Experiment in all cases: inhibition of tumour cell growth, NCI panel, 48 h
M14 = system: M14
NCI-H522 = system: NCI-H522
U-251 = system: U-251
HCT-15 = system: HCT-15
LOX IMVI = system: LOX IMVI
NCI/ADR-RES = system: NCI/ADR-RES
COLO 205 = system: COLO 205
UO-31 = system: UO-31
HOP-92 = system: HOP-92
SW-620 = system: SW-620
OVCAR-8 = system: OVCAR-8
NCI-H226 = system: NCI-H226
MOLT-4 = system: MOLT-4
EKVX = system: EKVX
SK-MEL-2 = system: SK-MEL-2
CCRF-CEM = system: CCRF-CEM
NCI-H460 = system: NCI-H460
SK-MEL-28 = system: SK-MEL-28
MCF7 = system: MCF7

Compound | GI50 (M14) | GI50 (NCI-H522) | GI50 (U-251) | GI50 (HCT-15) [µM] | GI50 (LOX IMVI) | GI50 (NCI/ADR-RES) | GI50 (COLO 205) | GI50 (UO-31) | GI50 (HOP-92) | GI50 (SW-620) | GI50 (OVCAR-8) | GI50 (NCI-H226) | GI50 (MOLT-4) | GI50 (EKVX) | GI50 (SK-MEL-2) | GI50 (CCRF-CEM) | GI50 (NCI-H460) | GI50 (SK-MEL-28) | GI50 (MCF7)
CC(=O)CC1(O)C(=O)c2c(Br)sc(Br)c2C1=O | 17.8 µM (inactive) | 18.4 µM (inactive) | 24 µM (inactive) | 20.4 | 17.7 µM (inactive) | 36.5 µM (inactive) | 18.7 µM (inactive) | 32.2 µM (inactive) | 18.8 µM (inactive) | 25.1 µM (inactive) | 23 µM (inactive) | 65.6 µM (inactive) | 32.4 µM (inactive) | 20 µM (inactive) | 22.2 µM (inactive) | 15.1 µM (inactive) | 45.1 µM (inactive) | 20.7 µM (inactive) | 30.1 µM (inactive)
COc1cccc2cc(C(=O)Nc3ccccc3)c(=N)oc12 | > 100 µM (inactive) | > 28.2 µM (inactive) | 67.6 µM (inactive) | > 100 | > 100 µM (inactive) | > 100 µM (inactive) | > 100 µM (inactive) | > 48.1 µM (inactive) | 22.2 µM (inactive) | > 100 µM (inactive) | > 46.6 µM (inactive) | > 100 µM (inactive) | > 100 µM (inactive) | > 100 µM (inactive) | > 100 µM (inactive) | > 21.8 µM (inactive) | > 100 µM (inactive) | > 100 µM (inactive) | 5.93 µM (inactive)
C/C(=N/NC(=S)Nc1ccc(C)cc1)c1ccccn1 | 0.0446 µM (active) | 0.12 µM (active) | 0.125 µM (active) | 0.0221 | 0.0162 µM (active) | < 0.0152 µM (active) | < 0.0166 µM (active) | 0.266 µM (active) | 0.719 µM (active) | < 0.0164 µM (active) | 0.0258 µM (active) | 0.0908 µM (active) | < 0.0122 µM (active) | 0.0601 µM (active) | 1.41 µM (inactive) | < 0.0124 µM (active) | 0.263 µM (active) | 2.1 µM (inactive) | 0.0146 µM (active)
O=S(=O)(Nc1nc2ccccc2nc1N1CCCCCC1)c1ccccc1 | 22.5 µM (inactive) | 19.1 µM (inactive) | 18.6 µM (inactive) | 17.2 | > 100 µM (inactive) | 25.8 µM (inactive) | > 100 µM (inactive) | 12.4 µM (inactive) | 7.8 µM (inactive) | 22.7 µM (inactive) | 29 µM (inactive) | 27.9 µM (inactive) | 16.4 µM (inactive) | 24.5 µM (inactive) | 16.3 µM (inactive) | 34.5 µM (inactive) | 15.7 µM (inactive) | 28.2 µM (inactive) | 28.6 µM (inactive)
CC(C)C1CC(CO)(CNc2nc(N)nc(Cl)c2C=O)C1 (configuration not stated) | 1.77 µM (inactive) | 0.604 µM (active) | 3.35 µM (inactive) | 4.43 | 2.04 µM (inactive) | 6.03 µM (inactive) | 12.3 µM (inactive) | 6.27 µM (inactive) | 2.28 µM (inactive) | 6.15 µM (inactive) | 2.75 µM (inactive) | 8.95 µM (inactive) | 2.15 µM (inactive) | 4.51 µM (inactive) | 1.8 µM (inactive) | 2.34 µM (inactive) | 8.22 µM (inactive) | 1.88 µM (inactive) | 10.3 µM (inactive)
O=C1CSC(c2ccc([N+](=O)[O-])cc2)N1c1ccc(-c2ccc(-n3c(-c4ccccc4)nc4ccccc4c3=O)cc2)cc1 (configuration not stated) | 59 µM (inactive) | > 100 µM (inactive) | 83 µM (inactive) | 33.7 | 52.5 µM (inactive) | 43.9 µM (inactive) | 43.5 µM (inactive) | 46.8 µM (inactive) | 41.7 µM (inactive) | > 100 µM (inactive) | 46.9 µM (inactive) | 56.1 µM (inactive) | 20.4 µM (inactive) | 38.5 µM (inactive) | 44.2 µM (inactive) | 25.7 µM (inactive) | 38.4 µM (inactive) | 81.3 µM (inactive) | 33.1 µM (inactive)
CCOC(=O)CC1(Cc2ccc(OCc3ccccc3)cc2)C(=O)OC(c2ccccc2)N1C(=O)c1ccccc1 (configuration not stated) | > 100 µM (inactive) | > 100 µM (inactive) | > 100 µM (inactive) | > 100 | > 100 µM (inactive) | > 100 µM (inactive) | > 100 µM (inactive) | 45.5 µM (inactive) | > 100 µM (inactive) | > 100 µM (inactive) | > 100 µM (inactive) | > 100 µM (inactive) | > 100 µM (inactive) | > 100 µM (inactive) | > 100 µM (inactive) | > 100 µM (inactive) | 21.5 µM (inactive) | > 100 µM (inactive) | > 100 µM (inactive)
c1cc2nnc1SCCSCCSc1ccc(nn1)SCCSCCS2 | > 100 µM (inactive) | > 100 µM (inactive) | > 100 µM (inactive) | > 100 | > 100 µM (inactive) | > 100 µM (inactive) | > 100 µM (inactive) | > 100 µM (inactive) | > 100 µM (inactive) | > 100 µM (inactive) | > 100 µM (inactive) | > 100 µM (inactive) | > 100 µM (inactive) | > 100 µM (inactive) | > 100 µM (inactive) | > 100 µM (inactive) | > 100 µM (inactive) | > 100 µM (inactive) | > 100 µM (inactive)
COc1cc(OC)c2c(=O)c(OC)c(-c3ccc4c(c3)OCO4)oc2c1OC | > 100 µM (inactive) | 43.1 µM (inactive) | > 100 µM (inactive) | > 100 | 41.2 µM (inactive) | > 100 µM (inactive) | 53.6 µM (inactive) | > 100 µM (inactive) | 4.91 µM (inactive) | > 100 µM (inactive) | > 100 µM (inactive) | > 100 µM (inactive) | 78.5 µM (inactive) | 47 µM (inactive) | > 100 µM (inactive) | 28.5 µM (inactive) | > 100 µM (inactive) | > 100 µM (inactive) | > 100 µM (inactive)
O=S(=O)(O)c1ccc(/N=N/c2ccc(/N=N/c3c(O)ccc4ccccc34)cc2)cc1 | > 100 µM (inactive) | > 100 µM (inactive) | > 100 µM (inactive) | > 100 | > 100 µM (inactive) | > 100 µM (inactive) | > 100 µM (inactive) | > 100 µM (inactive) | > 100 µM (inactive) | > 100 µM (inactive) | > 100 µM (inactive) | > 100 µM (inactive) | > 100 µM (inactive) | > 100 µM (inactive) | > 100 µM (inactive) | > 51.3 µM (inactive) | > 100 µM (inactive) | > 100 µM (inactive) | > 100 µM (inactive)
NC(=S)NN=Cc1ccccc1OCc1cccc(COc2ccccc2C=NNC(N)=S)n1 | > 100 µM (inactive) | > 64.9 µM (inactive) | 4.55 µM (inactive) | > 61.2 | > 100 µM (inactive) | 40.6 µM (inactive) | > 87.7 µM (inactive) | 28.2 µM (inactive) | 3.72 µM (inactive) | > 96.4 µM (inactive) | 6.01 µM (inactive) | > 34.4 µM (inactive) | > 100 µM (inactive) | 10 µM (inactive) | 6.89 µM (inactive) | > 100 µM (inactive) | > 58.6 µM (inactive) | > 100 µM (inactive) | > 100 µM (inactive)
CC(=O)C(C)CCOC1(C)OCCC1C (configuration not stated) | > 100 µM (inactive) | > 100 µM (inactive) | > 100 µM (inactive) | > 100 | > 100 µM (inactive) | > 100 µM (inactive) | 65 µM (inactive) | > 100 µM (inactive) | > 100 µM (inactive) | > 100 µM (inactive) | > 100 µM (inactive) | > 100 µM (inactive) | > 100 µM (inactive) | > 100 µM (inactive) | > 100 µM (inactive) | > 100 µM (inactive) | > 100 µM (inactive) | > 100 µM (inactive) | > 100 µM (inactive)
O=c1[nH]nc(-c2ccccc2)n1/N=C/c1ccc([N+](=O)[O-])cc1 | 96.2 µM (inactive) | > 100 µM (inactive) | 4.74 µM (inactive) | > 100 | 31.1 µM (inactive) | 20.1 µM (inactive) | > 100 µM (inactive) | 11.2 µM (inactive) | 10 µM (inactive) | > 100 µM (inactive) | 10.2 µM (inactive) | 27.6 µM (inactive) | > 100 µM (inactive) | > 80.4 µM (inactive) | 19.1 µM (inactive) | > 100 µM (inactive) | 22.9 µM (inactive) | > 100 µM (inactive) | > 60.1 µM (inactive)
N=C(N)n1nc2c(c1O)CCC2 | > 100 µM (inactive) | > 100 µM (inactive) | > 100 µM (inactive) | > 100 | > 100 µM (inactive) | > 100 µM (inactive) | > 100 µM (inactive) | > 100 µM (inactive) | > 100 µM (inactive) | > 100 µM (inactive) | > 100 µM (inactive) | > 100 µM (inactive) |  |  | > 100 µM (inactive) | > 100 µM (inactive) | > 100 µM (inactive) | > 100 µM (inactive) | > 100 µM (inactive)
O=C1C2=Nc3ccccc3C(O)(C(=O)O)N2c2ccccc21 (configuration not stated) |  | 17.6 µM (inactive) | 19.9 µM (inactive) | 15.2 | 20.1 µM (inactive) | 29.6 µM (inactive) | 16.4 µM (inactive) | 12.5 µM (inactive) | 32.7 µM (inactive) | 19.4 µM (inactive) | 17.5 µM (inactive) | > 100 µM (inactive) | 17.6 µM (inactive) | 60.7 µM (inactive) | 13.3 µM (inactive) | 21.9 µM (inactive) | 12.2 µM (inactive) | 43.9 µM (inactive) | 19.9 µM (inactive)
